Data set [1] has as its target T1, recombinant ATX (Homo sapiens, UniProt Q13822).
T1 construct: purchased SinoBiological Inc (main data); R&D (additional Km values)
Description: Amplex Red activity assay, LPC hydrolysis by recombinant ATX (Echelon). Particulars: substrate Km, recombinant ATX from Echelon. The format is biochemical. As to the method: BrP-LPA inhibition was also tested with the more sensitive reagent Amplex Red based on the Amplex™ Red PLD assay kit (Molecular Probes, Interchim, Montluçon, France) originally designed for the measurement of the PLD activity, [49]. All reactions were performed with purified ATX (2 nM) from Echelon at 37°C. The ability of ATX to cleave LPC was detected using a coupled assay that monitors the release of choline using Amplex Red (10 μΜ), choline oxidase (0.2 Units/ml) and horseradish peroxidise (2 Units/ml) The rate of fluorescence increase was measured in a fluorescence plate reader (Tecan Infinite 200 microplate reader from Tecan Trading AG, Switzerland) for up to 80 minutes; the fluorescence increase was linear during that time-frame for all cases. Rates were normalized to control reactions that contained all reaction components except for the test compound.
(§1) The biochemistry of lyso-PLD was assessed by following the kinetics data using a wide panel of different ATX substrates [FS-3, different LPC species (14:0, 16:0, 18:0, 18:1)], three different recombinant ATX proteins (R&D, Sino-Biological and Echelon) and three different ATX activity assays (FS-3, TOOS, Amplex Red). The ATX activity was measured at different substrate concentrations (typically from 1-1000 μM) in order to examine whether ATX follows Michaelis-Menten kinetics. The Michaelis constant (Km) was obtained by fitting the substrate dependence of V (ATX activity) to a rectangular hyperbola using the non-linear regression analysis of the statistical software package Prism 4.0 (GraphPad Software, Inc.). Km and Vmax were evaluated from the rectangular hyperbola curve with the use of GraphPad software.
(§2) For in vitro inhibition measurements, BrP-LPA was dissolved in water as a stock solution (4 mM) and appropriate dilutions were made in water. The inhibition of ATX by BrP-LPA was measured employing 2 nM recombinant ATX, 50 μΜ LPC (14:0, 16:0, 18:0) and 0.01 to 100 μmol/L of BrP-LPA (final concentrations). The in vitro inhibition of ATX by BrP-LPA was evaluated with three different assays (FS-3, Amplex Red, and TOOS). […] BrP-LPA was also tested for its ability to inhibit mouse plasma ATX activity. Diluted mouse plasma was used as the source of ATX and the analysis of inhibition was made with TOOS as the in vitro inhibition assay.
The inhibition model (competitive, noncompetitive, or mixed type inhibition) was evaluated by graphical analysis with Lineweaver–Burk double reciprocal plots (1/[velocity] versus 1/[substrate]) and Cornish-Bowden plot ([substrate]/[velocity] versus [Inhibitor]). These plots were generated by the measurement of ATX activity in the presence of different BrP-LPA concentrations (0–10 μΜ) and increased amounts of 16:0 LPC (100, 200, 400 μΜ). The inhibition constants (Ki) and IC50 values were determined using the mean values obtained from two independent experiments. The relative remaining ATX activity or LPA levels in the presence of the BrP-LPA was expressed as a percentage of the corresponding control value (ATX activity, LPA levels without inhibitor). The IC50 value was determined graphically by plotting the log concentration of BrP-LPA versus relative remaining ATX activity or LPA levels of each test sample using the sigmoid dose–response fitting method (Prism® software). The IC50 (concentration of BrP-LPA sufficient to inhibit ATX activity or diminish LPA levels by 50%) was calculated by the equation f = y0+a/(1+exp(-(x-x0)/b)) given by SigmaPlot 11.0 (Systat Software, Inc., San Jose, CA, USA).
Ki was calculated using the equation of Cheng and Prusoff: Ki = IC50/1+[S]/Km, where Ki is the binding affinity of the inhibitor, IC50 is the functional strength of the inhibitor, [S] is substrate concentration and Km is the concentration of substrate at which enzyme activity is half maximal. Whereas the IC50 value for a compound may vary between experiments depending on experimental conditions, Ki is an absolute value. […]

For data set [2], the target named is T1, recombinant ATX. Description: TOOS activity assay, LPC hydrolysis by recombinant ATX. Format: biochemical. Particulars: substrate Km, TOOS. The protocol:
ATX/LysoPLD activity was assessed based on the amount of choline released from LPC with the use of TOOS (N-ethyl-N-(2-hydoroxy-3-sulfopropyl)-3-methylaniline) reagent. In this assay ATX-mediated LPC-liberated choline is oxidised by choline oxidase to betaine and hydrogen peroxide (H2O2). The latter in the presence of horseradish peroxidase reacts with TOOS and 4-aminoantipyrene (4-AAP) to form a pink quinoneimine dye measured at 555 nm.
Diluted plasma samples (100 fold dilution; final EDTA concentration 0.5 mM) or recombinant ATX protein (2 nM) were incubated with LPC in the presence of 100 mmol/l Tris–HCl/pH 9.0, 500 mmol/l NaCl, 5 mmol/l MgCl2, 5 mmol/l CaCl2, 60 μM CoCl2 and 0.05% Triton X-100 for 3 h at 37°C at a final volume of 100 μl. It should be noted that EDTA was used not only as an anticoagulant but also as an inhibitor of ATX activity ex vivo [46], in order to suppress artificial LPA production during blood withdrawal and plasma preparation; this is because the same samples were used in phospholipid measurements.
The liberated choline was detected by adding 100 μl of a color mix containing 4-AAP and TOOS (0.3 mM), horseradish peroxidase (5.3 UnitmL^−1) and choline oxidase (2 UnitmL^−1). Absorbance was measured at 555 nm and data were analyzed using the statistical software package Prism 4.0 (Graphpad Software Inc, La Jolla, CA, USA). For each sample and control the absorbance was plotted against time and the slope (da/min) for the linear (steady-state) portion of each reaction profile was calculated. Absorbance units were converted to nmol of choline/min/ml by comparison with a choline standard curve or by use of the extinction coefficient for the quinoneimine dye according to the following equation: [drawing 1] Where Vt* is the total volume of reaction in ml (0.2 ml); Vs* is the volume of sample in ml; e is the millimolar extinction coefficient of quinoneimine dye under the assay conditions (e = e = […]); and 1/2: Factor based on the fact that 1 mol of hydrogen peroxide produces 1/2 mol of quinoneimine dye.
as §1, §2
The inhibition model (competitive, noncompetitive, or mixed type inhibition) was evaluated by graphical analysis with Lineweaver–Burk double reciprocal plots (1/[velocity] versus 1/[substrate]) and Cornish-Bowden plot ([substrate]/[velocity] versus [Inhibitor]). These plots were generated by the measurement of ATX activity in the presence of different BrP-LPA concentrations (0–10 μΜ) and increased amounts of 16:0 LPC (100, 200, 400 μΜ). […]

The test system of data set [3] is K/BxN serum transfer RA model. On the set-up: method as in PMID 18491295, PMID 22354754. The settings on record: cited from earlier work.
Details of data set [4]: method as in PMID 22354754. Particulars: cited from earlier work.
Data set [5] deals with COX-2 expression from SFs. More on the design: method as in PMID 18802115. Particulars: cited from earlier work.
Where [6] appears, read: recombinant ATX from Sinobiological Inc.

Structures are written as SMILES.

For the molecule `CCCCCCCCCCCCCC(=O)OC[C@@H](O)COP(=O)([O-])OCC[N+](C)(C)C` [14:0 LPC, reference compound], in data set [1], the Km (usually the substrate concentration at which the rate is half of its maximum) was determined as 80 ± 9 µM.

Consider `CCCCCCCCCCCCCCCC(=O)OC[C@@H](O)COP(=O)([O-])OCC[N+](C)(C)C` [16:0 LPC, reference compound], for which the Km in data set [2] (recombinant ATX from R&D) is 90 µM; in data set [2] (setting [6]), 60 ± 11 µM.

On to `CCCCCCCCCCCCCCCCCC(=O)OC[C@@H](O)COP(=O)([O-])OCC[N+](C)(C)C` [18:0 LPC, reference compound], for which the figures for the Michaelis-Menten constant (Km) in data set [1], in data set [2] (recombinant ATX from R&D) and in data set [2] (setting [6]) were 116 ± 13 µM, 114 µM and 82 ± 11 µM, respectively.

Regarding `CCCCCCCC/C=C\CCCCCCCC(=O)OC[C@@H](O)COP(=O)([O-])OCC[N+](C)(C)C` [18:1 LPC, reference compound], the Km in data set [2] (setting [6]) stood at 55 ± 10 µM.

Consider `Cc1noc(-c2ccc(CSCCC(=O)O)cc2)c1NC(=O)OC(C)c1ccccc1Cl` (stereo not shown) [ki16425], for which the arthritis severity entry in data set [3] was “reduction of arthritis severity”. Moreover, in data set [4], the half-life entry is on record as “very short half-life”. For the same molecule, the “LPA-mediated COX-2 expression” value in data set [5] was “inhibit LPA-mediated COX-2 expression”.
